Assay results from US20220125765A1, “PHARMACEUTICAL COMBINATIONS COMPRISING MEBENDAZOLE AND A STRONG OR MODERATE CYP1A2 INHIBITOR” (ZEPHAPHARM LTD, priority 2019, published 2022).
Read-outs that look alike come from different tables or passages of the source.

Assays:
OVCAR-5 = assay: 2D monolayer CellTiter-Blue viability, ovarian cancer OVCAR-5; assay type: cell-based; conditions: for IC50: Homo sapiens; for Test/Control (%) at Drug Concentration: 72 h
Experimental: Mebendazole was tested in vitro across a panel of 12 tumor cell lines of ovarian and renal cancer by using a 2D monolayer assay. […] OVXF 899L and RXF 486L are P-gp expressing, multidrug resistant cell lines.
Anti-tumor activity is expressed as absolute and relative IC50/70 values, calculated by 4-parameter non-linear curve fit.

SXFS U-2197 = assay: 2D monolayer CellTiter-Blue viability, soft tissue sarcoma U-2197; assay type: cell-based; conditions: 72 h
Experimental: (§1) Seventeen compounds, including mebendazole (Batch no. […] Efficacy of compounds was assessed using CellTiter-Blue® Cell Viability Assay. Anti-tumor activity is expressed as absolute and relative IC50 and IC70 values, calculated by non-linear regression analysis.

SXFS Hs 729 = assay: 2D monolayer CellTiter-Blue viability, soft tissue sarcoma Hs 729; assay type: cell-based; conditions: 72 h
Experimental: as §1

in vitro = conditions: human, cryopreserved hepatocytes (suspension)
Experimental: The amount of test compound remaining at each time point was analysed by LC-MS/MS. Appropriate control compounds were also incubated.
The final incubation volume was 500 μL. Appropriate control compounds were included, alongside appropriate vehicle control.
The reactions were stopped by transferring 50 μL of incubate to 100 μL acetonitrile containing internal standard at the appropriate time points (0, 5, 10, 20, 40 and 60 min). The termination plates were centrifuged at 2500 rpm at 4° C. for 30 min to precipitate the protein.

CYP2D6 = CYP2D6 (Homo sapiens, UniProt P10635); assay: Cytochrome P450 reaction phenotyping, recombinant CYP2D6 (Bactosomes)
Sequence of CYP2D6 (P10635 whole entry, canonical isoform): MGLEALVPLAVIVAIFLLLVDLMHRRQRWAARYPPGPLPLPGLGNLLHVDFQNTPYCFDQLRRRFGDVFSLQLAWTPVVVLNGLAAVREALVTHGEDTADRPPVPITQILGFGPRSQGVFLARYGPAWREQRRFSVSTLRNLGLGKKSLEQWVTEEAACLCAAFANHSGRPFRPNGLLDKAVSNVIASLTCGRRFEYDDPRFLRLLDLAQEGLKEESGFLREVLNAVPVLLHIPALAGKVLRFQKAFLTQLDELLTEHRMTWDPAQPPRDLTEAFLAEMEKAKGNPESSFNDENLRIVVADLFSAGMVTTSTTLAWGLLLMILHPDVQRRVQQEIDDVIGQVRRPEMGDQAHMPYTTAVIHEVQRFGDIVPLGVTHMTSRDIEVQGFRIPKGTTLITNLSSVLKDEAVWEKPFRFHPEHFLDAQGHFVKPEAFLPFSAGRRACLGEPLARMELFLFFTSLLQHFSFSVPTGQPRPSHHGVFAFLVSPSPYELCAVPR
Experimental: (§2) Incubations were also performed using control Bactosomes™ (no P450 enzymes present) to reveal any non-enzymatic degradation. Control compounds known to be metabolised specifically by each P450 isoform were included. All incubations were performed singularly for each test compound.
(§3) Incubations were also performed using control Bactosomes™ (no P450 enzymes present) to reveal any non-enzymatic degradation. Control compounds known to be metabolised specifically by each P450 isoform were included. All incubations were performed singularly for each test compound. […] The reactions were stopped by transferring an aliquot of incubate to quench solvent at the appropriate time points, in a 1:3 ratio. The termination plates were centrifuged at 3,000 rpm for 20 min at 4° C. to precipitate the protein.

SXFS HT-1080 = assay: 2D monolayer CellTiter-Blue viability, soft tissue sarcoma HT-1080; assay type: cell-based; conditions: 72 h
Experimental: Seventeen compounds, including mebendazole (Batch no. MKCC1885, Sigma-Aldrich, 100% pure), were tested in vitro across a panel of 8 selected neuroblastoma (NBXF) and 13 selected sarcoma (SXF) derived cell lines by using a 2D monolayer assay. Compounds were tested at […] in half-log increments up to 100 μM and cells were treated for a period of 72 hours. Efficacy of compounds was assessed using CellTiter-Blue® Cell Viability Assay. Anti-tumor activity is expressed as absolute and relative IC50 and IC70 values, calculated by non-linear regression analysis.

CYP2B6 = target: T1, CYP2B6 (Homo sapiens, UniProt P20813); assay: Cytochrome P450 reaction phenotyping, recombinant CYP2B6 (Bactosomes)
T1 sequence (P20813 1-491): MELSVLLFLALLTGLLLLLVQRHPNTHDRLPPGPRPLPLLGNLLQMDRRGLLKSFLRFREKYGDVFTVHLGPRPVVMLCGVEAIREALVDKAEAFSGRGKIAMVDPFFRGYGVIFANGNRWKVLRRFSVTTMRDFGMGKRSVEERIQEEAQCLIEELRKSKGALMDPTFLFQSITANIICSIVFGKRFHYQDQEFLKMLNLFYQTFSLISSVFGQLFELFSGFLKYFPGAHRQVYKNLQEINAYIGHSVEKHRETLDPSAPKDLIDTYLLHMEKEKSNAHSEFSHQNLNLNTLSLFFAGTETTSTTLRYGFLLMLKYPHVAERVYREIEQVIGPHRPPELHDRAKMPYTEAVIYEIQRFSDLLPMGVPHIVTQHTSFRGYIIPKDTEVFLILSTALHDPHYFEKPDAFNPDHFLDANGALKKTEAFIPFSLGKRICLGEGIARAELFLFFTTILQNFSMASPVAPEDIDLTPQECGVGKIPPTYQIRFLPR
Experimental: as §2, §3

IC50 (OVCAR-5; OVCAR-5, 72 h, read-out: Abs. IC50): 0.865 µM | IC50 (OVCAR-5; OVCAR-5, 72 h, read-out: Rel. IC50): 0.732 µM | half-life at 1 μM (in vitro): 1.52 h | hepatocyte CLint at 1 µM (in vitro): 15.2 µL/min/1e6 cells | half-life at 1 μM (in vitro; with fluvoxamine 10 μM): 30.7 h | hepatocyte CLint at 1 µM (in vitro; with fluvoxamine 10 μM): 0.751 µL/min/1e6 cells | half-life at 1 μM (in vitro; with fluvoxamine 300 μM): 3.75 h | hepatocyte CLint at 1 µM (in vitro; with fluvoxamine 300 μM): 6.16 ± 1.7 µL/min/1e6 cells | half-life at 1 μM (in vitro; with mexiletine 10 μM): 2.27 h | half-life at 1 μM (in vitro; with mexiletine 30 μM): 11.9 h | half-life at 1 μM (in vitro; with mexiletine 100 μM): 5.28 h | half-life at 1 μM (in vitro; with mexiletine 300 μM): 11.1 h | hepatocyte CLint at 1 µM (in vitro; with mexiletine 300 μM): 2.08 ± 1.8 µL/min/1e6 cells | Compound Remaining (% of 0 min) (CYP2D6; CYP2D6, 5 μM, 0 min): 100 % of 0 min | Compound Remaining (% of 0 min) (CYP2D6; CYP2D6, 5 μM, 5 min): 93.6 % of 0 min | Compound Remaining (% of 0 min) (CYP2D6; CYP2D6, 5 μM, 15 min): 93.3 % of 0 min | Compound Remaining (% of 0 min) (CYP2D6; CYP2D6, 5 μM, 30 min): 94.6 % of 0 min | Compound Remaining (% of 0 min) (CYP2D6; CYP2D6, 5 μM, 45 min): 90.4 % of 0 min | % compound remaining (CYP2D6; CYP2D6, 5 μM, time not stated): > 87.5% | t1/2 (CYP2D6; CYP2D6, substrate 5 μM): >2.25 h | half-life at 5 μM (CYP2D6; human, recombinant CYP2D6 (Bactosomes), pH 7.4): > 2.25 h | Compound Remaining (% of 0 min) (CYP2B6; CYP2B6, 5 μM, 0 min): 100 % of 0 min | Compound Remaining (% of 0 min) (CYP2B6; CYP2B6, 5 μM, 5 min): 117 % of 0 min | Compound Remaining (% of 0 min) (CYP2B6; CYP2B6, 5 μM, 15 min): 108 % of 0 min | Compound Remaining (% of 0 min) (CYP2B6; CYP2B6, 5 μM, 30 min): 112 % of 0 min | Compound Remaining (% of 0 min) (CYP2B6; CYP2B6, 5 μM, 45 min): 113 % of 0 min | % compound remaining (CYP2B6; CYP2B6, 5 μM, time not stated): > 87.5% | t1/2 (CYP2B6; CYP2B6, substrate 5 μM): >2.25 h | half-life at 5 μM (CYP2B6; human, recombinant CYP2B6 (Bactosomes), pH 7.4): > 2.25 h
Structure (SMILES): COC(=O)Nc1nc2ccc(C(=O)c3ccccc3)cc2[nH]1 [Mebendazole, methyl N-(6-benzoyl-1H-benzimidazol-2-yl)carbamate]
Test/Control (%) at Drug Concentration (OVCAR-5; OVCAR-5, 1.0E+00 μM): 42% | Test/Control (%) at Drug Concentration (OVCAR-5; OVCAR-5, 1.0E−01 μM): 90% | Test/Control (%) at Drug Concentration (OVCAR-5; OVCAR-5, 1.0E−02 μM): 102% | Test/Control (%) at Drug Concentration (OVCAR-5; OVCAR-5, 1.0E−03 μM): 103% | Test/Control (%) at Drug Concentration (OVCAR-5; OVCAR-5, 1.0E−04 μM): 102% | Test/Control (%) at Drug Concentration (OVCAR-5; OVCAR-5, 3.2E+00 μM): 22% | Test/Control (%) at Drug Concentration (OVCAR-5; OVCAR-5, 3.2E−01 μM): 91% | Test/Control (%) at Drug Concentration (OVCAR-5; OVCAR-5, 3.2E−02 μM): 95% | Test/Control (%) at Drug Concentration (OVCAR-5; OVCAR-5, 3.2E−03 μM): 92% | Test/Control (%) at Drug Concentration (OVCAR-5; OVCAR-5, 3.2E−04 μM): 96% | Abs. IC70 (OVCAR-5; OVCAR-5, 72 h): 1.480 µM | Rel. IC70 (OVCAR-5; OVCAR-5, 72 h): 0.995 µM | Bot. (%) (OVCAR-5; OVCAR-5, 72 h, curve fit): 20% | Top (%) (OVCAR-5; OVCAR-5, 72 h, curve fit): 97% | Test/Control (%) at Drug Concentration (SXFS U-2197; U-2197, 1.0E+00 μM): 42% | Test/Control (%) at Drug Concentration (SXFS U-2197; U-2197, 1.0E+01 μM): 37% | Test/Control (%) at Drug Concentration (SXFS U-2197; U-2197, 1.0E+02 μM): 18% | Test/Control (%) at Drug Concentration (SXFS U-2197; U-2197, 1.0E−01 μM): 91% | Test/Control (%) at Drug Concentration (SXFS U-2197; U-2197, 1.0E−02 μM): 93% | Test/Control (%) at Drug Concentration (SXFS U-2197; U-2197, 3.2E+00 μM): 44% | Test/Control (%) at Drug Concentration (SXFS U-2197; U-2197, 3.2E+01 μM): 36% | Test/Control (%) at Drug Concentration (SXFS U-2197; U-2197, 3.2E−01 μM): 79% | Test/Control (%) at Drug Concentration (SXFS U-2197; U-2197, 3.2E−02 μM): 93% | Test/Control (%) at Drug Concentration (SXFS U-2197; U-2197, 3.2E−03 μM): 93% | Test/Control (%) at Drug Concentration (SXFS Hs 729; Hs 729, 1.0E+00 μM): 65% | Test/Control (%) at Drug Concentration (SXFS Hs 729; Hs 729, 1.0E+01 μM): 44% | Test/Control (%) at Drug Concentration (SXFS Hs 729; Hs 729, 1.0E+02 μM): 12% | Test/Control (%) at Drug Concentration (SXFS Hs 729; Hs 729, 1.0E−01 μM): 90% | Test/Control (%) at Drug Concentration (SXFS Hs 729; Hs 729, 1.0E−02 μM): 91% | Test/Control (%) at Drug Concentration (SXFS Hs 729; Hs 729, 3.2E+00 μM): 56% | Test/Control (%) at Drug Concentration (SXFS Hs 729; Hs 729, 3.2E+01 μM): 35% | Test/Control (%) at Drug Concentration (SXFS Hs 729; Hs 729, 3.2E−01 μM): 84% | Test/Control (%) at Drug Concentration (SXFS Hs 729; Hs 729, 3.2E−02 μM): 89% | Test/Control (%) at Drug Concentration (SXFS Hs 729; Hs 729, 3.2E−03 μM): 93% | Test/Control (%) at Drug Concentration (SXFS HT-1080; HT-1080, 1.0E+00 μM): 7% | Test/Control (%) at Drug Concentration (SXFS HT-1080; HT-1080, 1.0E+01 μM): 4% | Test/Control (%) at Drug Concentration (SXFS HT-1080; HT-1080, 1.0E+02 μM): 1% | Test/Control (%) at Drug Concentration (SXFS HT-1080; HT-1080, 1.0E−01 μM): 79% | Test/Control (%) at Drug Concentration (SXFS HT-1080; HT-1080, 1.0E−02 μM): 89% | Test/Control (%) at Drug Concentration (SXFS HT-1080; HT-1080, 3.2E+00 μM): 4% | Test/Control (%) at Drug Concentration (SXFS HT-1080; HT-1080, 3.2E+01 μM): 3% | Test/Control (%) at Drug Concentration (SXFS HT-1080; HT-1080, 3.2E−01 μM): 35% | Test/Control (%) at Drug Concentration (SXFS HT-1080; HT-1080, 3.2E−02 μM): 79% | Test/Control (%) at Drug Concentration (SXFS HT-1080; HT-1080, 3.2E−03 μM): 90%
